Values after ≈ are worked out from the molar mass of the structure shown.
Key:
Test in all cases: in vitro antibacterial activity, minimal inhibitory concentration
Format in all cases: cell-based
Staph. aureus UC-76 = conditions: Staphylococcus aureus, UC76; Staph. aureus UC-76, in vitro
Text: (§1) The compounds of the invention are new chemical compounds that are used as pharmacological agents and especially as broad spectrum antibacterial agents. They are active in vitro against strains of both gram-positive and gram-negative bacteria.
(§2) Minimal Inhibitory Concentration (μg/ml)

Prot. vulg. = test system: Prot. vulg.
Text: as §1, §2

Entero. cloacae = conditions: Enterobacter cloacae
Text: as §1, §2

Strep. fec. = test system: Strep. fec.
Text: as §1, §2

Pseudomonas UI 18 = conditions: UI18; Pseudomonas UI 18, in vitro
Text: as §1, §2

Klebs. pneu. = test system: Klebs. pneu.
Text: as §1, §2

E. coli Vogel = conditions: Escherichia coli
Text: as §1, §2

Pseudomonas #28 = conditions: Pseudomonas #28, in vitro; read-out: Minimal Inhibitory Concentration
Text: as §1, §2

Serr. marces. = test system: Serr. marces.
Text: as §1, §2

Staph. aureus S18733 = conditions: Staphylococcus aureus
Text: as §1, §2

E. coli Brig = conditions: Escherichia coli
Text: as §1, §2

Pseudomonas BRK 12-4-4 = conditions: BRK1244; Pseudomonas BRK 12-4-4, in vitro
Text: as §1, §2

| SMILES | MIC (Staph. aureus UC-76) [µg/mL] | MIC (Prot. vulg.) [µg/mL] | MIC (Entero. cloacae) [µg/mL] | MIC (Strep. fec.) [µg/mL] | MIC (Pseudomonas UI 18) [µg/mL] | MIC (Klebs. pneu.) [µg/mL] | MIC (E. coli Vogel) [µg/mL] | MIC (Pseudomonas #28) [µg/mL] | MIC (Serr. marces.) [µg/mL] | MIC (Staph. aureus S18733) [µg/mL] | MIC (E. coli Brig) [µg/mL] | MIC (Pseudomonas BRK 12-4-4) [µg/mL] |
| --- | --- | --- | --- | --- | --- | --- | --- | --- | --- | --- | --- | --- |
| CC(=O)NC(C)C(=O)Nc1ccc(-c2ncc(C(=O)N[C@@H](C(=O)NC3C(=O)N4C(C(=O)O)=C(CSc5nnnn5C)CSC34)c3ccc(O)cc3)c(O)n2)cc1 (mixture of isomers) [Example 32, N-[2-[4-(N-Acetyl-DL-alanylamino)phenyl]-4-hydroxy-5-pyrimidinylcarbonyl]-7-[D-2-amino-2-(4-hydroxyphenyl)acetamido]-3-[[(1-methyl-1H-tetrazol-5-yl)thio]methyl]-3-cephem-4-carboxylic acid] | 3.1 | 12.5 | 6.3 | 50 | 6.3 | 1.6 | 1.6 | 3.1 | > 50 | 6.3 | 6.3 | 6.3 |
| CC(=O)NCC(=O)Nc1ccc(-c2ncc(C(=O)N[C@@H](C(=O)N[C@@H]3C(=O)N4C(C(=O)O)=C(COC(C)=O)CS[C@H]34)c3ccccc3)c(O)n2)cc1 [Example 7, N-[2-[4-(N-Acetylglycylamino)phenyl]-4-hydroxy-5-pyrimidinylcarbonyl]-7-[D-2-amino-2-phenylacetamido]-3-acetoxymethyl-3-cephem-4-carboxylic acid] | – | – | 25 (≈ 34.8 µM) | 50 (≈ 69.7 µM) | 12.5 (≈ 17.4 µM) | 6.3 (≈ 8.78 µM) | – | – | – | – | – | – |
| CC(=O)NC(C)(C)C(=O)Nc1ccc(-c2ncc(C(=O)N[C@@H](C(=O)N[C@@H]3C(=O)N4C(C(=O)O)=C(COC(C)=O)CS[C@H]34)c3ccccc3)c(O)n2)cc1 [Example 2, N-[2-[4-(N-Acetyl-alpha-aminoisobutyrylamino)phenyl)-4-hydroxy-5-pyrimidinylcarbonyl]-7-[D-2-amino-2-phenylacetamido]-3-acetoxymethyl-3-cephem-4-carboxylic acid] | 3.1 (≈ 4.16 µM) | 25 (≈ 33.5 µM) | 50 (≈ 67 µM) | > 50 | 3.1 (≈ 4.16 µM) | 25 (≈ 33.5 µM) | 25 (≈ 33.5 µM) | 1.6 (≈ 2.15 µM) | > 50 | 12.5 (≈ 16.8 µM) | 50 (≈ 67 µM) | 6.3 (≈ 8.45 µM) |
| CC(=O)NCCCC(=O)Nc1ccc(-c2ncc(C(=O)N[C@@H](C(=O)NC3C(=O)N4C(C(=O)O)=C(CSc5nnnn5C)CSC34)c3ccccc3)c(O)n2)cc1 (stereo partly drawn) [Example 27, N-[2-[4-(N-Acetyl-aminobutyrylamino)phenyl]-4-hydroxy-5-pyrimidinylcarbonyl]-7-[D-2-amino-2-phenylacetamido]-3-[[(1-methyl-1H-tetrazol-5-yl)thio]methyl]-3-cephem-4-carboxylic acid] | 1.6 (≈ 2 µM) | 12.5 (≈ 15.6 µM) | 6.3 (≈ 7.86 µM) | 25 (≈ 31.2 µM) | 6.3 (≈ 7.86 µM) | 1.6 (≈ 2 µM) | 1.6 (≈ 2 µM) | 3.1 (≈ 3.87 µM) | 25 (≈ 31.2 µM) | 6.3 (≈ 7.86 µM) | 12.5 (≈ 15.6 µM) | 12.5 (≈ 15.6 µM) |
| CC(=O)N[C@@H](C(=O)Nc1ccc(-c2ncc(C(=O)N[C@@H](C(=O)N[C@@H]3C(=O)N4C(C(=O)O)=C(COC(C)=O)CS[C@H]34)c3ccccc3)c(O)n2)cc1)C(C)C [Example 17, N-[2-[4-(N-Acetyl-D-valylamino)phenyl]-4-hydroxy-5-pyrimidinylcarbonyl]-7-[D-2-amino-2-phenylacetamido]-3-acetoxymethyl-3-cephem-4-carboxylic acid] | 1.6 (≈ 2.11 µM) | 25 (≈ 32.9 µM) | 25 (≈ 32.9 µM) | 50 (≈ 65.8 µM) | 6.3 (≈ 8.29 µM) | 12.5 (≈ 16.5 µM) | 6.3 (≈ 8.29 µM) | 6.3 (≈ 8.29 µM) | > 50 | 6.3 (≈ 8.29 µM) | 12.5 (≈ 16.5 µM) | 12.5 (≈ 16.5 µM) |
| CC(=O)NCCCC(=O)Nc1ccc(-c2ncc(C(=O)N[C@@H](C(=O)N[C@@H]3C(=O)N4C(C(=O)O)=C(COC(C)=O)CS[C@H]34)c3ccccc3)c(O)n2)cc1 [Example 16, N-[2-[4-(N-Acetyl-γ-aminobutyrylamino)phenyl]-4-hydroxy-5-pyrimidinylcarbonyl]-7-[D-2-amino-2-phenylacetamido]-3-acetoxy-methyl-3-cephem-4-carboxylic acid] | 0.8 (≈ 1.07 µM) | 25 (≈ 33.5 µM) | 25 (≈ 33.5 µM) | 25 (≈ 33.5 µM) | 12.5 (≈ 16.8 µM) | 12.5 (≈ 16.8 µM) | 6.3 (≈ 8.45 µM) | 6.3 (≈ 8.45 µM) | > 50 | 3.1 (≈ 4.16 µM) | 50 (≈ 67 µM) | 12.5 (≈ 16.8 µM) |

From patent US4311699A, “Aminoacid derivatives of cephalosporin compounds” (priority 1980, dated 1982)
